# Results as given in patent US6432426B1, “Non-staining topical iodine composition and method” (Symbollon Corporation, priority 1998, dated 2002).
# Values joined by “and” are separate entries in the source; they are usually repeats but may differ in a detail not shown here. Identical values can stand only once.
# Legend:
# Streptococcus agalactica = assay: Residual biocidal effect of skin associated iodine, repeated experiment; format: in vivo; conditions: saturated molecular iodine solution (320 ppm)
# Salmonella typhimurium = assay: as above; format: in vivo; conditions: saturated molecular iodine solution (320 ppm)
# [1] = test system: Staphylococcus epidermidis; assay: as above; format: in vivo; conditions: saturated molecular iodine solution (320 ppm)
# Human Skin = assay: Diffusion of iodine from skin post application (DPD absorbance at 553 nm); format: in vivo; conditions: average of three subjects
# Experimental: 2. Three samples from Example 1 were used to confirm that molecular iodine will penetrate into skin and remain in the skin for a prolonged time period.
# Application of the iodine solution onto skin was performed as described in Example 1 above with the exception that the contacted area was flushed with water for 15 seconds immediately after following contact between the iodine solution and skin. The method of Goftardi (J. Hosp. Infect., 1995, Vol 29, pages 9-18) were used to measure the amount of molecular iodine coming out of the skin. Briefly, 1 mL of a diethyl-p-phenylenediamine (DPD) solution was placed concentrically onto the exposed area of skin and left there for 30 seconds. This solution was then transferred to a 1 cm cuvette and the absorbance was read at 553 nm. Control values were obtained by contacting the DPD solution to an unexposed area on the forearm of each subject. Control values were subtracted from the experimental measurements. Iodine solutions containing 50 ppm, 150 ppm and 300 ppm of molecular iodine were used for this example. Two measurements were made (one measurement of each forearm) at each iodine concentration on all three subjects.
# [2] = Sub dermal penetration of iodine measured by iodine analysis of 24 hour urine; format: in vivo, human; conditions: 300 ppm molecular iodine applied to skin 4 times over six hours; lines = Subjects 1-3 (prior: 95, 114, 106); listed as I2
# Experimental: 11. The 300 ppm samples of molecular iodine described in Example 1 was used to confirm that molecular iodine will penetrate into skin and permeate into the skin to provide sub dermal tissue penetration.
# Application of the iodine solution onto skin was performed as described in Example 1 above with two exceptions: (1) the contacted area was flushed with water for 15 seconds immediately after following contact between the iodine solution and skin and (2) the sample was applied to the skin once every 2 hours over a six hour time period (4 applications).
# Twenty-four hour urine samples were collected on three subjects for the day immediately prior to the experiment. […] The urine samples were analyzed to determine their total iodine content. Urinary concentrations of total iodide were measured by utilizing the reduction-oxidation reaction between ceric ioni and arsenite ion catalyzed by iodide. […] Arsenious acid was added, the samples were transferred to an autoanalyzer, ceric ammonium sulfate was added “on line” and the optical transmission was measured spectrophometrically at 420 nm. […] If the yellow color fades to colorless (clear) within 1.5 minutes, the iodine content is too high to be measured. […] The % transmission was recorded and the concentration of iodine in each sample was determined by comparison to the standards.
compound,measurement,setting,value
"II [Molecular Iodine, molecular iodine]",Residual biocidal efficacy on skin,Streptococcus agalactica,Efficacy was also demonstrated
same,Residual biocidal efficacy on skin,Salmonella typhimurium,Efficacy was also demonstrated
same,Residual biocidal efficacy on skin,[1],Efficacy was also demonstrated
same,"Mean absorbance (DPD, 553 nm), iodine diffusing from skin","Human Skin; 50 ppm I2, 3 minutes after application",0.06
same,"Mean absorbance (DPD, 553 nm), iodine diffusing from skin","Human Skin; 50 ppm I2, 6 minutes after application",0.17
same,"Mean absorbance (DPD, 553 nm), iodine diffusing from skin","Human Skin; 50 ppm I2, 20 minutes after application",0.19
same,"Mean absorbance (DPD, 553 nm), iodine diffusing from skin","Human Skin; 50 ppm I2, 60 minutes after application",0.18
same,"Mean absorbance (DPD, 553 nm), iodine diffusing from skin","Human Skin; 50 ppm I2, 90 minutes after application",0.13
same,"Mean absorbance (DPD, 553 nm), iodine diffusing from skin","Human Skin; 50 ppm I2, 120 minutes after application",0.08
same,"Mean absorbance (DPD, 553 nm), iodine diffusing from skin","Human Skin; 50 ppm I2, 240 minutes after application",0.06
same,"Mean absorbance (DPD, 553 nm), iodine diffusing from skin","Human Skin; 50 ppm I2, 660 minutes after application",0.02
same,"Mean absorbance (DPD, 553 nm), iodine diffusing from skin","Human Skin; 150 ppm I2, 3 minutes after application",0.32
same,"Mean absorbance (DPD, 553 nm), iodine diffusing from skin","Human Skin; 150 ppm I2, 6 minutes after application",0.31
same,"Mean absorbance (DPD, 553 nm), iodine diffusing from skin","Human Skin; 150 ppm I2, 20 minutes after application",0.48
same,"Mean absorbance (DPD, 553 nm), iodine diffusing from skin","Human Skin; 150 ppm I2, 60 minutes after application",0.53
same,"Mean absorbance (DPD, 553 nm), iodine diffusing from skin","Human Skin; 150 ppm I2, 90 minutes after application",0.50
same,"Mean absorbance (DPD, 553 nm), iodine diffusing from skin","Human Skin; 150 ppm I2, 120 minutes after application",0.46
same,"Mean absorbance (DPD, 553 nm), iodine diffusing from skin","Human Skin; 150 ppm I2, 240 minutes after application",0.36
same,"Mean absorbance (DPD, 553 nm), iodine diffusing from skin","Human Skin; 150 ppm I2, 660 minutes after application",0.20
same,"Mean absorbance (DPD, 553 nm), iodine diffusing from skin","Human Skin; 300 ppm I2, 3 minutes after application",0.78
same,"Mean absorbance (DPD, 553 nm), iodine diffusing from skin","Human Skin; 300 ppm I2, 6 minutes after application",0.65
same,"Mean absorbance (DPD, 553 nm), iodine diffusing from skin","Human Skin; 300 ppm I2, 20 minutes after application",1.11
same,"Mean absorbance (DPD, 553 nm), iodine diffusing from skin","Human Skin; 300 ppm I2, 60 minutes after application",0.93
same,"Mean absorbance (DPD, 553 nm), iodine diffusing from skin","Human Skin; 300 ppm I2, 90 minutes after application",0.77
same,"Mean absorbance (DPD, 553 nm), iodine diffusing from skin","Human Skin; 300 ppm I2, 120 minutes after application",0.64
same,"Mean absorbance (DPD, 553 nm), iodine diffusing from skin","Human Skin; 300 ppm I2, 240 minutes after application",0.57
same,"Mean absorbance (DPD, 553 nm), iodine diffusing from skin","Human Skin; 300 ppm I2, 660 minutes after application",0.40
same,"24 Hour Urine iodine, Post I2 Application",[2],647 ug iodine and 846 ug iodine and 741 ug iodine
